Data on two compounds can be found in patent US20180071339A1, “COMBINATION OF PHARMACEUTICAL PREPARATIONS FOR TUMOR CHEMOTHERAPY” (HUBEI SOUNDNY BIOTECHNOLOGY CO., LTD., priority 2015, published 2018).

Structures can show the parent of a compound that is named as a salt.

In test [1] the test system is mouse bladder cancer cell line MB49. The test is described as follows: mouse orthotopic bladder cancer model. It is filed as in vivo, C57 mice. The following applies: compared to mice firstly treated with cell vesicles then administered with Dox or HCPT; bladder infusion; bladders taken on day 12; FIGS. 7A and 7B. How it is done: Mouse bladder cancer cells are cultured with 10% of FBS 1640 basal medium until logarithm phase, and are resuspended with PBS into cell suspension with a cell concentration of 10^7/mL after being digested with trypsin. After C57 mice were anesthetized, 100 uL 0.1 mg/mL of polylysin solution are infused into mouse bladder using intravenous indwelling needle for pre-treatment for 20 min, and then 100 uL cell suspension are infused into the bladder after the polylysin solution is excreted, and cell suspension is excreted after holding for 1 h.
Preparing the cell vesicles with chemotherapy drugs wrapped therein: 100 uL chemotherapy drug (Dox or HCPT) are administered to 1 ml 1×10^7 mouse bladder cancer cells (1 mg/mL); 48 hours after administration of chemotherapy drugs, firstly centrifuging cell culture medium that contains apoptotic tumor cells at the rotational speed of 1300 rpm, 5000 rpm, respectively, each for 10 minutes and collecting a first supernatant; then centrifuging the first supernatant at the centrifugal force of 14000 g for 1 minute to remove cells and debris, and collecting a second supernatant; further centrifuging the second supernatant at the centrifugal force of 14000 g for 1 hour, then collecting precipitate to obtain cell vesicles with chemotherapy drugs wrapped therein. […]

The subject of test [2] is human breast cancer cells MCF-7. The test is described as follows: uptake of doxorubicin drugs by MCF-7, two-photon confocal microscope. It is filed as cell-based. The settings on record: 1 μg/ml doxorubicin hydrochloride for 4 hours, test group first incubated with cell vesicles for 12 hours, FIG. 3. How it is done: (§1) Cell vesicles derived from human breast cancer cell line MCF-7 are obtained in accordance with the method in Example 2;
(§2) 1×10^5 human breast cancer cells MCF-7, tumor repopulating cells MCF-7/TRC, human breast cancer doxorubicin hydrochloride drug resistant cells ADR/MCF-7 were planted in the confocal dish, respectively. Cell vesicles that prepared above and derived from human breast cancer cell lines MCF-7 are added to the dish containing the above three kinds of cells respectively, with amount of 5×10^5/dish, and incubated for 12 hours, used as a test group;
(§3) Human breast cancer cells MCF-7, tumor repopulating cells MCF-7/TRC, and human breast cancer doxorubicin hydrochloride drug resistant strains ADR/MCF-7 without addition of cell vesicles are used as a control group. […]

The test system is the same in test [3]. The test is described as follows: excretion of doxorubicin drugs from MCF-7 cells, two-photon confocal microscope. It is filed as cell-based. The settings on record: 1 μg/ml doxorubicin for 4 hours; test group first incubated with 5×10^5 cell vesicles for 12 hours; FIG. 2. The procedure:
Human breast cancer cell line MCF-7 is cultured in RPMI Medium 1640, so that the cell amount reaches 2×10^7/ml; human breast cancer cell line MCF-7 is exposed to UV radiation for 60 minutes; 18 hours after UV radiation, human breast cancer cell line MCF-7 starts apoptosis, which is observed under microscope; collecting cell vesicles from the above apoptotic tumor cells by centrifugation or filtration procedure, as described in Example 1;
1×10^5 normally cultured human breast cancer cells MCF-7 are planted in a confocal dish, and then 5×10^5 cell vesicles prepared above and derived from human breast cancer cell line MCF-7 are added into the confocal dish and incubated with MCF-7 for 12 hours, and used as a test group (i.e., MCF-7 cells+MPs); 1×10^5 human breast cancer cells MCF-7 without adding the cells vesicles are used as a control group (i.e., MCF-7 cells).
The test group and the control group are washed once with PBS respectively, and then a medium containing 1 μg/ml of doxorubicin drugs is added, 4 hours later, two groups are stabilized with 4% of paraformaldehyde for 20 minutes, the excretion of doxorubicin drugs from the human breast cancer cell MCF-7 in test group and control group is observed under the Two-photon confocal microscope.

Test [4] concerns tumor repopulating cells MCF-7/TRC. The test is described as follows: uptake of doxorubicin drugs by MCF-7/TRC, two-photon confocal microscope. It is filed as cell-based, human. The settings on record: 1 μg/ml doxorubicin hydrochloride for 4 hours, test group first incubated with cell vesicles for 12 hours, FIG. 3.
Description: as §1
5000 MCF-7 human breast cancer cells are planted in the three-dimensional fibrous protein gel, and after 5 days culturing, a stem cell-like colony is formed, these cells are referred to as tumor repopulating cells, that is, MCF-7/TRC.
as §2, §3

Test [5] has as its system human breast cancer doxorubicin hydrochloride drug resistant strains ADR/MCF-7. Kind of test: uptake of doxorubicin drugs by ADR/MCF-7, two-photon confocal microscope. It is filed as cell-based. The settings on record: 1 μg/ml doxorubicin hydrochloride for 4 hours, test group first incubated with cell vesicles for 12 hours, FIG. 3. How it is done: as §1, §2, §3

Consider `CC[C@@]1(O)C(=O)OCc2c1cc1n(c2=O)Cc2cc3cc(O)ccc3nc2-1` [HCPT, hydroxycamptothecin], for which the treatment effects entry in test [1] is “weaker treatment effects”.
On to `COc1cccc2c1C(=O)c1c(O)c3c(c(O)c1C2=O)C[C@@](O)(C(=O)CO)C[C@@H]3O[C@H]1C[C@H](N)[C@H](O)[C@H](C)O1` [doxorubicin, doxorubicin hydrochloride], for which the “doxorubicin drug content in the nucleus” value in test [2] is “not high”. In test [3], the “doxorubicin drug quantity in nucleus” value is reported as “drug quantity in nucleus is not high” and the “excretion of doxorubicin drugs from MCF-7 cells” value was “excrete a great number of drugs outside of the cell membrane”. In addition, the treatment effects entry in test [1] is given as “weaker treatment effects”. Also, the “drug content in nucleus” value in test [4] is listed as “less than that in control group MCF-7”. Besides, in test [5], the “drug content in nucleus” value is listed as “less than that in control group MCF-7”.
